Results published in US11890279B2, “Quinolines that modulate SERCA and their use for treating disease” (Neurodon Corporation, priority 2020, dated 2024).

Tests used:
[1] = test system: CSM14.1 cells; assay: ER stress cell survival assay (thapsigargin); type: cell-based; details: compound 2 μM; about 15 μM thapsigargin; CSM14.1 cells;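 further: survival read as CellTiter-Glo luminescence after overnight incubation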
[2] = Brain barrier penetration in mice; type: in vivo; details: mouse, brain/plasma, 10 mg/kg IP, 1 hr after dosing, read-out: brain/plasma ratio
Excerpt: The brains of the mice were harvested 1 hr after dosing. The brain/plasma ratio was 2.6.

[3] = test system: SERCA (SR vesicles); assay: Activation of SERCA, increase in Vmax; type: biochemical
Description: Test compounds were characterized over a range of concentrations using an NADH-linked, enzyme-coupled ATPase assay. Each well contained 2 mg or 7 mg of SR vesicles (optimized for skeletal or cardiac SR, respectively), 50 mM MOPS (pH 7.0), 100 mM KCl, 5 mM MgCl2, 1 mM EGTA, 0.2 mM NADH, 1 mM phosphoenol pyruvate, 5 IU pyruvate kinase, 5 IU lactate dehydrogenase, and 3.5 mg/mL A23187 (a calcium ionophore), and CaCl2 was added to set free [Ca2+] to the specific values. The assay was started upon addition of ATP at a final concentration of 5 mM, and read in a SpectraMax Plus microplate spectrophotometer and the ATPase activities were fitted using the Hill function.

[4] = test system: rabbit monoamine transporter; assay: Selectivity panel of 164 targets; details: 10 μM in duplicate; one of only 4 hits among 164 targets
Excerpt: (§1) The methods used here for each target were adapted from the scientific literature to maximize reliability and reproducibility.

[5] = target: human nerepinephrine (NET) transporter (Homo sapiens (Human), UniProt P23975); assay: Selectivity panel of 164 targets; details: 10 μM in duplicate; one of only 4 hits among 164 targets
Excerpt: as §1

[6] = target: human adenosine A2A (Homo sapiens (Human), UniProt P29274); assay: Selectivity panel of 164 targets; details: 10 μM in duplicate; one of only 4 hits among 164 targets
Excerpt: as §1

[7] = target: human serotonin (5-hydroxytryptamine) 5-HT2B (Homo sapiens (Human), UniProt P41595); assay: Selectivity panel of 164 targets; details: 10 μM in duplicate; one of only 4 hits among 164 targets
Excerpt: The methods used here for each target were adapted from the scientific literature to maximize reliability and reproducibility. Reference standards were run as an integral part of each essay to ensure the validity of the results obtained.

[8] = Pharmacokinetics in Sprague Dawley rats; type: in vivo, rat; details: Sprague Dawley rats
Description: Blood was drawn at 5 min, 15 min, 30 min, 1 hr, 2 hrs, 4 hrs, 6 hrs, and 8 hrs into EDTA containing tubes and plasma was harvested by centrifugation. Plasma (25 μL) was treated with acetonitrile (125 μL) containing an internal standard. The sample was then centrifuged for 5 min at 4,000 rpm in a tabletop centrifuge and the filtrate was collected. The filtrate was injected onto a Thermo Betasil C18 HPLC column 5 (50×2.1 mm). Mobile Phase A was water with 0.1% formic acid. Mobile Phase B was acetonitrile with 0.1% formic acid. […] An API Sciex 4000 equipped with a turbo ion spray source was used for all analytical measurements. A positive ion MRM method was developed. Peak areas of the product ion were measured against the peak areas of the internal standard. Data was fit using WinNonLin (Pharsight Corporation, Mountain View, CA).

[9] = test system: APP-PS1 mice; assay: Aβ deposition, thioflavin S staining; type: in vivo, mouse; details: 10 mg/kg ip, 4 weeks, vs saline
Description: Mice were transcardially perfused with ice-cold PBS (3 mL) followed by 4% paraformaldehyde (5 mL). Brains were extracted and fixed overnight in 30% sucrose-cryoprotectant solution. Coronal hippocampal sections […] thick were cut on a cryostat and collected in TBS (0.1 M Tris, 0.9% saline, pH 7.4). Thioflavin S Staining: Free-floating hippocampal sections were washed with TBS (4×3 min). The sections were soaked in 0.5% thioflavin S (in 50/50 ethyl alcohol/distilled water, Sigma-Aldrich) for 10 min, followed by 2×3 min washes with 50% ethyl alcohol. Sections were washed again with TBS (2×3 min), mounted with minimal drying, and coverslipped with anti-fade mounting medium PVA-DABCO for microscopy. Confocal images of immunolabeled tissue were obtained using 4× and 10× objective lenses on the Olympus Fluoview confocal microscope. Density of amyloid plaques was quantified by averaging the percent area staining positive (thresholded above background staining, as determined by software parameters and experimenter confirmation) within the hippocampus and cortex from 3-5 sections from each experimental animal using MetaMorph Software (Molecular Devices). There were no significant differences in the intensity of background threshold values across animal strains or treatment conditions (p>0.05). The experimenter was blind to animal strain and treatment condition. […] Mice were ˜6 months of age.

Chain of human adenosine A2A (P29274 whole entry): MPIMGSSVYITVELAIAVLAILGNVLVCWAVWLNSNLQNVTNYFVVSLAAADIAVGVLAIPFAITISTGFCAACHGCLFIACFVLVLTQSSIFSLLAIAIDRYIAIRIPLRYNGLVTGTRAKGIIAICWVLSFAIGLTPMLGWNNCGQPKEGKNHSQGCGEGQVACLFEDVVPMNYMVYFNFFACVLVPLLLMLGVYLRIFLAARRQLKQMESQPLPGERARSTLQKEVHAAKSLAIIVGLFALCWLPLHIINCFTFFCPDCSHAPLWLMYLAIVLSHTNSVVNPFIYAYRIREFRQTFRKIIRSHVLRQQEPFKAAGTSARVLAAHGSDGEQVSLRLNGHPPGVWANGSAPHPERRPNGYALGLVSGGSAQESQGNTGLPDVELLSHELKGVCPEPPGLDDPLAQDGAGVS
Chain of human serotonin (5-hydroxytryptamine) 5-HT2B (P41595 whole entry): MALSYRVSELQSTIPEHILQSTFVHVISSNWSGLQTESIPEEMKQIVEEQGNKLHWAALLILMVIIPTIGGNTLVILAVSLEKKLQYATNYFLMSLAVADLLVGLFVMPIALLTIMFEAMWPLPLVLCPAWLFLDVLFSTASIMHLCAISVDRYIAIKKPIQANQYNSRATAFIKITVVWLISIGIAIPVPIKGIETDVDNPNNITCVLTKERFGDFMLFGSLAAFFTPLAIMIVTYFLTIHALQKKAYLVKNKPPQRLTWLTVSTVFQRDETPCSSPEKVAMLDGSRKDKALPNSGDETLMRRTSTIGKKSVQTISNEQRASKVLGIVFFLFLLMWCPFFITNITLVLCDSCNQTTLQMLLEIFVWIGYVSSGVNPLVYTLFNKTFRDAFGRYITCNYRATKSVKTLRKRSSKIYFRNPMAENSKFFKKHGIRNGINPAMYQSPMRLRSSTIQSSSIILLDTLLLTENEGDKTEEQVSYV

Row | Structure (SMILES) | Cell Survival [1] | Kp at 1 h [2] | Increase in Vmax at 10 μM [3] | response against rabbit monoamine transporter [4] | response against human NET transporter [5] | response against human adenosine A2A [6] | response against human 5-HT2B [7] | CLobs ([8]; listed under oral pharmacokinetic properties) [mL/min/kg] | Cmax ([8]; rat, plasma, oral, 2 mg/kg P.O.) [nM] | AUC(0-t) ([8]; rat, plasma, oral, 2 mg/kg P.O., read-out: AUClast) [µM·h] | amyloid plaques stained with Thioflavin S [9]
1 | Cc1ccc2cccc(NC(=O)c3ccc(N(C)C)cc3)c2n1 [Compound C18, 4-N,N-Dimethylamino-N-(2-methylquinolin-8-yl)benzamide] | B (B represents a value between 10% and 50%) |  |  |  |  |  |  |  |  |  | 
2 | Cc1ccc2cccc(NC(=O)c3ccc(OC(C)C)cc3)c2n1 [Compound A12, 4-Isopropoxy-N-(2-methylquinolin-8-yl)benzamide] |  | 2.6 | A′ (A′ represents an increase greater than 50%) | significant responses | significant responses | significant responses | significant responses | 251 | 260 | 0.41 | reduced
